{
  "source": "patent US20230233546A1",
  "about": "“METHODS OF TREATING CANCER” (Kymera Therapeutics, Inc., priority 2021, published 2023)",
  "key": {"[1]": {"tested_on": "Acute lymphoblastic leukemia cells (RS4;11)", "assay": "Cell Titer Glo cell viability / growth inhibition in RS4;11", "format": "cell-based", "details": "for IC50: Homo sapiens, RS4-11, read-out: all cell killing CTG IC50 in RS4;11", "protocol": "(§1) In vitro cell viability in all cells lines, at optimized growth conditions, was assessed using Cell Titer Glo (Promega) assay performed over 24 h-96 h compound treatments. Compound treatments were carried out using a 11-point dose response, 3-fold serial dilutions stating at a maximum concentration of 1 uM. IC50, IC90 values were calculated by curve fitting using appropriate Nonlinear Regression fit in GraphPad Prism. Cell cycle arrest and/or apoptosis in response to single agent or combination treatment was assessed using flow cytometry analysis on cells treated for 24 h.\nAcute lymphoblastic leukemia cells (RS4;11) were treated for 24 h with Compound A or small molecule inhibitor DS-3032 in a 3-fold serial dilution dose-response at maximum concentration of 1 mM. Growth inhibition was quantified using Cell titer glo (Promega) assay at 24 h continuous treatment."}, "[2]": {"target": "T1, C-terminally HiBiT-tagged MDM2 (Homo sapiens, UniProt Q00987)", "T1 construct": "expressed in transfected cells", "T1 sequence (Q00987 whole entry)": "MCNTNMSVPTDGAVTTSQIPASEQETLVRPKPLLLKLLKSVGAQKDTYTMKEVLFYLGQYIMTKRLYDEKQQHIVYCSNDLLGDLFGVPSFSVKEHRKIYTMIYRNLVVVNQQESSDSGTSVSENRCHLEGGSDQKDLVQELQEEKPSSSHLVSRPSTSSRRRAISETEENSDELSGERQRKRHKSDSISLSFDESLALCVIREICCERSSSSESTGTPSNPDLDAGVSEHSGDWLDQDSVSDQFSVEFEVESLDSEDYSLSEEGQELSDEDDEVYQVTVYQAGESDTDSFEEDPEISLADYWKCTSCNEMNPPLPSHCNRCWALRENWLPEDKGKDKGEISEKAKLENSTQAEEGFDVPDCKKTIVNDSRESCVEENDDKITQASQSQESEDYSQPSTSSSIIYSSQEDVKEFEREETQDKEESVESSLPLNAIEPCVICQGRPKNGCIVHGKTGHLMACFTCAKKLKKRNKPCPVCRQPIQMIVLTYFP", "assay": "MDM2 degradation, HiBiT signal (Nano-Glo HiBiT lytic detection) in 293T cells", "format": "cell-based", "protocol": "293T cells stably expressing C-terminally HiBiT-tagged MDM2 were treated for 4 h with Compound A or small molecule inhibitor DS-3032 in a 3-fold serial dilution dose-response at maximum concentration of 1 mM. Degradation potency was measured as reduction in HiBiT signal, quantified using Nano-Glo® HiBiT lytic detection system (Promega)."}, "p53": {"tested_on": "p53", "assay": "p53 stabilization, p53 MSD assay in RS4;11 cells", "format": "cell-based", "details": "RS4;11, 2 h treatment", "protocol": "Acute lymphoblastic leukemia cells (RS4;11) were treated for 2 h (4 h, 8 h and 24 h—data not shown) with Compound A or small molecule inhibitor DS-3032 in a 3-fold serial dilution dose-response at maximum concentration of 1 mM. p53 levels were quantified using p53 MSD assay (Total p53 Whole Cell Lysate Kit, MSD, K150DBD-2)."}, "[3]": {"tested_on": "Acute lymphoblastic leukemia cells (RS4;11)", "assay": "Washout apoptosis assay, Caspase Glo 3/7 in RS4;11", "format": "cell-based", "details": "RS4;11, 4 h exposure followed by washout, measured at 24 or 48 h post treatment", "protocol": "For washout assay, cells were treated for 4-24 h at serial dilutions indicated above. At the end of treatment times (4 h, 8 h, 16 h and 24 h) cells were washed twice with complete media, plated in 384-well plates and incubated for 24-72 h. Cells were assessed for viability using Cell Titer Glo (Promega) assay and apoptosis using Caspase Glo 3/7 (Promega) assay at 24 h, 48 h and 72 h post the start of treatment.\nAcute lymphoblastic leukemia cells (RS4;11) were treated for 4 h (8 h, 16 h, 24 h—data not shown) with Compound A or small molecule inhibitor DS-3032 at indicated concentrations. Apoptotic activity was quantified as increase in Caspase activity measured using Caspase Glo® 3/7 assay system (Promega)."}, "RS4;11 tumor": {"tested_on": "RS4;11 tumor", "assay": "RS4;11 subcutaneous mouse xenograft, tumor volume", "format": "in vivo", "details": "single intravenous bolus, 1, 3, and 10 mg/kg; doses as low as 1 mg/kg", "protocol": "Female mice, 5-8 wks old mice NOD/SCID mice from SPF (Beijing) experimental Animal Science Technology Co., ltd. Animals were received, housed and observed for seven days prior to study initiation. Each mouse were inoculated subcutaneously with RS4;11 tumor cells (1×107) in 0.1 ml of RPMI1640 with 10% FBS for tumor development. Groups and treatments were started when the mean tumor volume reached about 100 mm3 for study. Based on the tumor volume, mice were randomly assigned to respective groups using a computer-generated randomization procedure. Compound A was formulated in 20% HP-β-CD at concentrations up to 0.1 mg/mL and administered intravenously to tumor bearing animals. Tumor size was measured twice to three times weekly in three dimensions using a caliper. The measurement of tumor size were conducted twice weekly with a caliper and recorded. The tumor volume (mm^3) was estimated using the formula: TV=a×b2/2, where “a” and “b” are long and short diameters of a tumor, respectively.\n(§2) Compound A was administered as a single intravenous bolus in RS411 tumor bearing mice at doses of 1, 3, and 10 mg/kg. […] Change in the levels of protein markers in degrader treated xenografts was quantified relative vehicle treated xenografts using western blot assay. Clinical equivalent doses of SMIs had no significant in vivo impact in these xenograft models."}, "p53, p21, and PUMA": {"tested_on": "p53, p21, and PUMA", "assay": "Protein markers in RS4;11 tumor xenografts, western blot", "format": "in vivo, mouse", "details": "1 mg/kg", "protocol": "At various times tumor bearing animals were sacrificed and plasma and tumors collected for pharmacokinetic and pharmacodynamic determinations.\nas §2"}, "disseminated AML model": {"tested_on": "disseminated AML model", "assay": "Disseminated AML xenograft model, survival", "format": "in vivo, mouse", "details": "weekly administration, compared to vehicle treated animals", "protocol": "Female mice, 5-8 wks old mice NOD/SCID mice from SPF (Beijing) experimental Animal Science Technology Co., ltd. Animals were received, housed and observed for seven days prior to study initiation. Each mouse will be with tumor cells in 0.1 ml PBS via tail-vein injection. Groups and treatments were started 4 days post-inoculation. Based on the body weight, mice were randomly assigned to respective groups using a computer-generated randomization procedure. Compound A was formulated in 20% HP-β-CD at concentrations up to 0.1 mg/mL and administered intravenously to tumor bearing animals.\nIn this model, Compound A exposures correlated with induction of apoptotic p53 target genes and tumor growth inhibition."}, "[4]": {"tested_on": "CTG-2227 AML patient-derived xenograft (PDX)", "assay": "AML patient-derived xenograft model CTG-2227", "format": "in vivo, mouse", "details": "1 mg/kg, Q3W, IV", "protocol": "(§3) AML patient cells from leukapheresis were intravenously (IV) injected and established in immunocompromised host strain mice. Surrogate animals were used to determine the level of engraftment targeting a threshold of ˜20% huCD45+ cells in BM. Mice were randomized on study and treatment was initiated. Vehicle and Compound A, 1 mg/kg were administered IV, every three weeks for six weeks (total of two doses of Compound A). At study end, whole blood, bone marrow and spleen were assessed by flow cytometry."}, "CTG-2240 AML PDX": {"tested_on": "CTG-2240 AML PDX", "assay": "AML patient-derived xenograft model CTG-2240", "format": "in vivo, mouse", "details": "1 mg/kg, Q3W, IV", "protocol": "as §3"}, "CTG-2700 AML PDX": {"tested_on": "CTG-2700 AML PDX", "assay": "AML patient-derived xenograft model CTG-2700", "format": "in vivo, mouse", "details": "1 mg/kg, Q3W, IV", "protocol": "as §3"}, "[5]": {"tested_on": "hCD45+ cells in bone marrow and AML blasts", "assay": "AML PDX models, flow cytometry at study end", "format": "in vivo, mouse", "details": "1 mg/kg, Q3W", "protocol": "as §3"}, "MOLM-13 cell line": {"tested_on": "MOLM-13 cell line", "assay": "Combination treatment in MOLM-13 cell line, apoptosis and cell killing", "format": "cell-based", "details": "combination with venetoclax and midostaurin", "protocol": "as §1"}, "MOLM-13 xenograft": {"tested_on": "MOLM-13 xenograft", "assay": "MOLM-13 xenograft model, combination with standard of care", "format": "in vivo"}, "[6]": {"tested_on": "multiple heme indications (AML, T cell lymphomas, mantle cell lymphoma, DLBCL)", "assay": "In vitro activity across heme indications", "format": "cell-based", "details": "mantle cell lymphoma, and DLBCL most sensitive", "protocol": "as §1"}, "[7]": {"tested_on": "OCI-LY10 p53^WT ABC-subtype DLBCL xenograft", "assay": "OCI-LY10 DLBCL xenograft model", "format": "in vivo"}, "[8]": {"tested_on": "TMD8 p53^MUT ABC-subtype DLBCL xenograft", "assay": "TMD8 DLBCL xenograft model", "format": "in vivo"}, "[9]": {"tested_on": "panel of solid and hematological tumor cell lines", "assay": "Cell growth inhibition across a tumor cell line panel", "format": "cell-based", "protocol": "as §1"}},
  "data": [
    {"smiles": "CC(C)[C@@H](CS(=O)(=O)C(C)C)N1C(=O)[C@@](C)(CC(=O)O)C[C@H](c2cccc(Cl)c2)[C@H]1c1ccc(Cl)cc1", "note": "[AMG-232]", "values": [
      {"measurement": "IC50", "setting": "[1]", "result": 280, "unit": "nM"}
    ]},
    {"smiles": "Cn1c(=O)n(C2CCC(=O)NC2=O)c2ccc(C3CCN(C(=O)[C@H]4CC[C@H](NC(=O)[C@@H]5NC6(CCCCC6)[C@@]6(C(=O)Nc7cc(Cl)ccc76)[C@H]5c5cccc(Cl)c5F)CC4)CC3)cc21", "note": "(stereo partly drawn) [Compound A, (3′R,4'S,5′R)-6″-chloro-4′-(3-chloro-2-fluorophenyl)-N-((1R,4R)-4-(4-(1-(2,6-dioxopiperidin-3-yl)-3-methyl-2-oxo-2,3-dihydro-1H-benzo[d]imidazol-5-yl)piperidine-1-carbonyl)cyclohexyl)-2″-oxodispiro[cyclohexane-1,2′-pyrrolidine-3′,3″-indoline]-5′-carboxamide]", "values": [
      {"measurement": "degradation of MDM2", "setting": "[2]; 4 h treatment", "result": "rapid and potent degradation of MDM2"},
      {"measurement": "degrades MDM2 at", "setting": "[2]; FIG. 1, HiBiT-tagged MDM2, 4 h treatment", "result": 0.4, "unit": "nM"},
      {"measurement": "stabilization of p53", "setting": "p53", "result": "strong stabilization of p53"},
      {"measurement": "IC50", "setting": "[1]", "result": 0.3, "unit": "nM"},
      {"measurement": "cancer cell growth inhibition", "setting": "[1]; RS4;11, 24 h continuous treatment, compared with SMI", "result": "potently inhibits cancer cell growth"},
      {"measurement": "induction of apoptosis (Caspase activity)", "setting": "[3]", "result": "sufficient to potently induce apoptosis"},
      {"measurement": "anti-tumor activity", "setting": "RS4;11 tumor", "result": "sustained tumor regression"},
      {"measurement": "time of peak of protein marker upregulation post-dose", "setting": "p53, p21, and PUMA", "result": 6, "unit": "h"},
      {"measurement": "upregulation of protein markers p53, p21, and PUMA in tumor xenografts", "setting": "p53, p21, and PUMA; relative to vehicle treated xenografts", "result": "marked upregulation"},
      {"measurement": "survival", "setting": "disseminated AML model", "result": "significantly prolonged the survival"},
      {"measurement": "response in CTG-2227 AML PDX model", "setting": "[4]", "result": "tumor regression"},
      {"measurement": "response in CTG-2240 AML PDX model", "setting": "CTG-2240 AML PDX", "result": "partial responses"},
      {"measurement": "response in CTG-2700 AML PDX model", "setting": "CTG-2700 AML PDX", "result": "partial responses"},
      {"measurement": "hCD45+ cells in bone marrow and AML blasts", "setting": "[5]", "result": "significantly reduces"},
      {"measurement": "induction of apoptosis and cell killing in combination", "setting": "MOLM-13 cell line", "result": "enhances induction of apoptosis and cell killing"},
      {"measurement": "anti-tumor activity in MOLM-13 xenograft model", "setting": "MOLM-13 xenograft; single dose in combination with daily dosing of venetoclax", "result": "sustained tumor regression"},
      {"measurement": "in vitro activity across heme indications", "setting": "[6]", "result": "active across multiple heme indications"},
      {"measurement": "activity in OCI-LY10 xenograft model", "setting": "[7]", "result": "highly active"},
      {"measurement": "activity in TMD8 xenograft model", "setting": "[8]", "result": "not"},
      {"measurement": "stronger cell growth inhibition, compared to SMIs", "setting": "[9]", "result": "> 200", "unit": "fold"}
    ]},
    {"smiles": "CC1(C)CCC2(CC1)N[C@@H](C(=O)N[C@@H]1CC[C@@H](C(N)=O)OC1)[C@H](c1ccnc(Cl)c1F)[C@]21C(=O)Nc2cc(Cl)ccc21", "note": "[DS-3032]", "values": [
      {"measurement": "IC50", "setting": "[1]", "result": 67, "unit": "nM"}
    ]},
    {"smiles": "COc1ncc(-c2nc3c(n2C(C)C)[C@H](c2ccc(Cl)cc2)N(c2cc(Cl)cn(C)c2=O)C3=O)c(OC)n1", "note": "[HDM201]", "values": [
      {"measurement": "IC50", "setting": "[1]", "result": 163, "unit": "nM"}
    ]},
    {"smiles": "COc1cc(C(=O)O)ccc1NC(=O)[C@@H]1N[C@@H](CC(C)(C)C)[C@](C#N)(c2ccc(Cl)cc2F)[C@H]1c1cccc(Cl)c1F", "note": "[RG7388]", "values": [
      {"measurement": "IC50", "setting": "[1]", "result": 220, "unit": "nM"}
    ]},
    {"smiles": "CC(C)(C)C[C@@H]1N[C@@H](C(=O)N[C@H]2CC[C@H](O)CC2)[C@H](c2cccc(Cl)c2F)[C@]12C(=O)Nc1cc(Cl)ccc12", "note": "[SAR405838]", "values": [
      {"measurement": "IC50", "setting": "[1]", "result": 620, "unit": "nM"}
    ]},
    {"smiles": "Nc1ccn([C@@H]2O[C@H](CO)[C@@H](O)[C@@H]2O)c(=O)n1", "note": "[cytarabine]", "values": [
      {"measurement": "anti-tumor activity in MOLM-13 xenograft model", "setting": "MOLM-13 xenograft; combination of cytarabine and venetoclax", "result": "no significant anti-tumor activity"},
      {"measurement": "anti-tumor activity in MOLM-13 xenograft model", "setting": "MOLM-13 xenograft; cytarabine alone", "result": "no significant anti-tumor activity"}
    ]}
  ]
}
